Assay results reported in PMC3523469 (Investigational New Drugs, 2012).
Like-named read-outs stand apart in the source and are kept apart here.

How the values were obtained:
[1] = Plasma pharmacokinetics after single; format: in vivo, Japanese patients; details: for Ctrough: range (min, max) of averaged Ctrough concentrations from Day 1 of Cycles 2 to 4; for AUC(0-inf) / half-life / Cmax / Tmax: human, plasma
[2] = test system: human tumor xenograft models that express and/or overexpress HER family members; details: cited from earlier work

Work on COc1cc2ncnc(Nc3ccc(F)c(Cl)c3)c2cc1NC(=O)/C=C/CN1CCCCC1 [dacomitinib, Dacomitinib] yielded a Ctrough ([1]; 15 mg QD) of 28.2 to 33.2 ng/mL, a Ctrough ([1]; 30 mg QD) of 49.0 to 56.5 ng/mL and a Ctrough ([1]; 45 mg QD) of 60.9 to 76.6 ng/mL. For the same compound, the “kinetics after single- and multiple-dose administration” value ([1]; dose range studied, 15–45 mg) was “linear kinetics”, the AUC(0-inf) ([1]; oral, 15 mg) was 660 ng·h/mL and the half-life ([1]; oral, 15 mg) was 61.1 h. The Cmax ([1]; oral, 15 mg, single dose (D-9), N 3, mean (%CV)) was 8 ng/mL, the Tmax ([1]; oral, 15 mg, Tmax, multiple dose (C1D14), 15 mg QD, N 2, median (min, max)) was 15 h and the Tmax ([1]; oral, 15 mg, Tmax, single dose (D-9), N 3, median (min, max)) was 24 h. For the same compound, the AUC(0-inf) ([1]; oral, 30 mg) was 988 ng·h/mL, the half-life ([1]; oral, 30 mg) was 98 h and the Cmax ([1]; oral, 30 mg, multiple dose (C1D14), 30 mg QD, N 3, mean (%CV)) was 64.3 ng/mL. The Cmax ([1]; oral, 30 mg, single dose (D-9), N 3, mean (%CV)) was 12.2 ng/mL, the Tmax ([1]; oral, 30 mg, Tmax, multiple dose (C1D14), 30 mg QD, N 3, median (min, max)) was 4 h and the Tmax ([1]; oral, 30 mg, Tmax, single dose (D-9), N 3, median (min, max)) was 8 h. For the same compound, the AUC(0-inf) ([1]; oral, 45 mg) was 1600 ng·h/mL, the half-life ([1]; oral, 45 mg) was 80 h and the Cmax ([1]; oral, 45 mg, multiple dose (C1D14), 45 mg QD, N 6, mean (%CV)) was 81.2 ng/mL. It also gave a Cmax ([1]; oral, 45 mg, single dose (D-9), N 7, mean (%CV)) of 21.2 ng/mL, a Tmax ([1]; oral, 45 mg, Tmax, multiple dose (C1D14), 45 mg QD, N 6, median (min, max)) of 8 h and a Tmax ([1]; oral, 45 mg, Tmax, single dose (D-9), N 7, median (min, max)) of 6 h. For the same compound, the Tmax ([1]; po, median Tmax, single oral dose (D-9), range over the dose range of 15–45 mg) was 6 to 24 h, the Cave ([1]; multiple dose (C1D14), 30 mg QD, N 3, mean (%CV)) was 56.3 (22) ng/mL and the Cave ([1]; multiple dose (C1D14), 45 mg QD, N 6, mean (%CV)) was 75.1 (23) ng/mL. For the same compound, the “dose dependence of Cmax and AUCinf” value ([1]; single oral dose (D-9), 15–45 mg) was “increased along with dose in a proportional manner”, the antitumor effects ([2]; tumors with EGFR-activating mutations and tumors with T790M) was “Antitumor effects were shown” and the antitumor effects ([2]; xenograft models that express and/or overexpress HER family members) was “showed antitumor effects”.
